# Assay: Human HepG2 cell viability assay in 384 well format
# Format: toxicity, cell-based
# Set-up: dose 125 nL, time 70.5 hour; cytotoxicity at 70.5 h: concentration not given beside the values
# Details: HepG2 cells, read-out: Inhibition
row,Structure (SMILES),cytotoxicity at 70.5 h
1,Cc1noc(C)c1CN1CC[C@H]2OCC[C@@H](C(=O)N3CCCO3)[C@H]2C1,-2.47%
2,CNC(=O)c1cc2c(nc1NCC1CC1)CCNCC2,4.29%
3,CCN(C)c1ncnc2c1CCN(C(=O)N1CCOCC1)CC2,6.06%
4,COc1ccc(S(=O)(=O)N2CCn3cnc(COCC4CC4)c3C2)cc1,10.3%
5,CN1C(=O)C(c2cccnc2)CC12CCN(C(=O)c1ccc[nH]1)CC2 (stereo unspecified),15.4%
6,CCOCc1ncn2c1CN(S(=O)(=O)c1ccc(OC)cc1)CC2,-9.1%
7,COCc1ncn2c1CN(S(=O)(=O)c1ccc(C)cc1)CC2,-0.994%
8,CCOCc1ncn2c1CN(S(=O)(=O)c1ccc(C)cc1)CC2,35.9%
9,Cc1cccc(CO[C@@H]2C[C@H]3CN(C(=O)c4cnccn4)CCN3C2)n1,-8.15%
10,CC(C)(C)C(=O)N1C[C@@H]2COC[C@]2(c2nnc(C3CC3)o2)C1,-8.33%
11,Cc1cnc(CNC(=O)[C@@H]2CC[C@@H]3[C@@H](CCN3Cc3ccco3)O2)cn1,-11.9%
12,Cc1cc(C(=O)N2C[C@@H]3COC[C@]3(c3nnc(C)o3)C2)on1,-11.2%
13,O=C(Nc1ccccc1)C1CN(Cc2cccs2)CC12CCOCC2 (stereo unspecified),-6.1%
14,Cc1ccc(C(=O)N2CC[C@H]3O[C@@H](c4noc(C)n4)C[C@H]3C2)o1,-8.48%
15,Cc1nc([C@H]2C[C@H]3CN(C(=O)c4ccoc4C)CC[C@@H]3O2)no1,-7.31%
16,Cc1ccc(C(=O)N2CCc3ncnc(C)c3CC2)cc1F,6.96%
17,Cc1ccc(N2CCCc3sc(C(=O)NCc4ccc(C)o4)nc32)nn1,-6.21%
18,Cc1ncnc2c1CCN(C(=O)c1cccc(F)c1)CC2,-5.99%
19,Cc1noc(C)c1CN1CC2(CCN(C(=O)c3ccoc3C)C2)CC1=O (stereo unspecified),-6.54%
20,O=C(c1ccccc1)N1CCC2(CC1)CC(Oc1ccccc1)CO2 (stereo unspecified),-11.5%
21,c1ccc(-c2ncc3c(n2)C2(CCN(CC4CC4)C2)COC3)cc1 (stereo unspecified),15.2%

row,Structure (SMILES),cytotoxicity at 70.5 h
1,Cc1ccc(O[C@@H]2C[C@H]3CN(C(=O)c4cnccn4)CCN3C2)cc1,-4.43%
2,O=C(C1=CC2(CCN(CCO)CC2)c2ccccc21)N1CCCC1,-4.5%
3,Cc1ccc(CN2CC(C(=O)Nc3ccccc3)C3(CCOCC3)C2)o1 (stereo unspecified),-12.3%
4,Cn1cc(CN2CC(C(=O)Nc3ccccc3)C3(CCOCC3)C2)cn1 (stereo unspecified),-9.91%
5,O=C(c1ccsc1)N1CCc2c(COCC3CC3)cncc2C1,18.9%
6,CCOCC(=O)N1Cc2nnn(C)c2C(COCc2ccccn2)C1 (stereo unspecified),9.65%
7,COCC1CN(S(=O)(=O)N(C)C)Cc2cnn(CC3CCCC3)c21 (stereo unspecified),-5.7%
8,Cc1noc(C)c1CN1CCC2(COCc3cnc(N(C)C)nc32)C1 (stereo unspecified),-3.18%
9,CCOCC1CN(Cc2csc(C)n2)Cc2nccn2C1 (stereo unspecified),3.86%
10,COc1cccc(CN2CCC3(COCc4cnc(N(C)C)nc43)C2)c1 (stereo unspecified),1.22%
11,Cc1cccc(CN2CC[C@H]3CO[C@H](CNC(=O)N(C)C)[C@H]3C2)c1,-3.19%
12,CN(C)C(=O)N1CCC(c2nc3ccc(N4CCCC4)cn3n2)CC1,-4.23%
13,Cc1nnc(N2C[C@H](OCC3CCCC3)[C@H]3OCCC[C@H]32)s1,-5.71%
14,COc1ccc(CN2CC[C@H]3[C@H](CO[C@H]3CNC(=O)N(C)C)C2)cc1,-0.91%
15,Cc1ccc(CN2CCOC3(COCCN(S(C)(=O)=O)C3)C2)s1 (stereo unspecified),-6.35%
16,CCN(C)c1ncnc2c1CCN(C(=O)c1ccccn1)CC2,17.4%
17,O=C(NCc1ccco1)[C@H]1CC[C@@H]2[C@@H](CCN2Cc2cccnc2)O1,-5.95%
18,CS(=O)(=O)N1CCOCC2(CN(Cc3ccccn3)CCO2)C1 (stereo unspecified),-5.98%
19,Cc1nc(CN2Cc3nccn3CC(CN3CCCC3)C2)cs1 (stereo unspecified),-3.82%
20,Cc1nc(CN2Cc3nccn3CC(CN3CCOCC3)C2)cs1 (stereo unspecified),-2.85%
